Patent publication US9868733B2, “Azabenzimidazole tetrahydrofuran derivatives” (Merck Sharp & Dohme Corp., priority 2012, dated 2018)

Legend:
[1] = target: recombinant human AMPK complex 7 (containing α2β1γ1) (Homo sapiens, UniProt P54646+Q9Y478); assay: in vitro AMPK activation assay (AMPKSAMSF); format: biochemical; settings: for EC50: inflection point reflecting 50% of the maximum activation, human AMPK Complex 7; for Emax: recombinant human AMPK complex 7 (α2β1γ1), 10-point titration expressed as % maximum AMP activation
Sequence of recombinant human AMPK complex 7 (containing α2β1γ1) (P54646 whole entry): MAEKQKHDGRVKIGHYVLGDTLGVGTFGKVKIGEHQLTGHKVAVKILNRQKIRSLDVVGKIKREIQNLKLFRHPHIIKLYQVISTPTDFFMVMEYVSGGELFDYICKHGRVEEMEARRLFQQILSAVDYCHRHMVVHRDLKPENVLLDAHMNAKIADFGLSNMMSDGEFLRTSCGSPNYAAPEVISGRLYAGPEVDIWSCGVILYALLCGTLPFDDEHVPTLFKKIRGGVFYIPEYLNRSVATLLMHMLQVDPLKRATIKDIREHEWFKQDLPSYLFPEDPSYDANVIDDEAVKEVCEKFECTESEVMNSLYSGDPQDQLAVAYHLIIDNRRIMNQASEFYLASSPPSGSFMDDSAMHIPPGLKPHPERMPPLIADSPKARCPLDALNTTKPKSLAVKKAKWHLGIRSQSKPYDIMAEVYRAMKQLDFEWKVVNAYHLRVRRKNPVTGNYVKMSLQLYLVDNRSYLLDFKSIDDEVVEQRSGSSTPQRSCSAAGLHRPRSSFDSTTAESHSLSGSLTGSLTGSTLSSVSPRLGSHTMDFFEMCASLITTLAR
Sequence of recombinant human AMPK complex 7 (containing α2β1γ1) (Q9Y478 whole entry): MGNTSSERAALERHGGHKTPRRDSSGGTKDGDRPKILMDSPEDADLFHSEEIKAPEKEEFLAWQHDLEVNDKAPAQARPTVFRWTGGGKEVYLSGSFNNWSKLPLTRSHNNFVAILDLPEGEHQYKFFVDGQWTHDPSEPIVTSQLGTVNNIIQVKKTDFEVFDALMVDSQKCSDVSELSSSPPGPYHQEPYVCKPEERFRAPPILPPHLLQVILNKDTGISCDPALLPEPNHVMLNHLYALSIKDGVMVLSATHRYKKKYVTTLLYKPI
Sequence of recombinant human AMPK complex 7 (containing α2β1γ1) (P54619 whole entry partner): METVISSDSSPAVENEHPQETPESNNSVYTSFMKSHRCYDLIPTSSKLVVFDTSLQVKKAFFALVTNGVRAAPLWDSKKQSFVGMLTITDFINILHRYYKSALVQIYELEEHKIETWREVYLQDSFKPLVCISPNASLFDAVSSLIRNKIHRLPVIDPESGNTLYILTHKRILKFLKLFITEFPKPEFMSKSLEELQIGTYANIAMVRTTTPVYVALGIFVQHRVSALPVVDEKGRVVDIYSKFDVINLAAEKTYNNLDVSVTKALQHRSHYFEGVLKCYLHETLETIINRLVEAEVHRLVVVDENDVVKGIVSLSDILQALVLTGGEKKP
Protocol: The recombinant human AMPK complex 1 (containing α1β1γ1) or AMPK complex 7 (containing α2β1γ1) was obtained from baculovirus expression system. Recombinant viruses were generated by cotransfection of AMPK/pBacPak9 clones with Baculogold baculovirus DNA (Pharmingen) in spodoptera frugiperda 21 cells according to the manufacturer's instructions. Each round of virus amplification was performed for 5 days in Grace's medium containing 10% serum. Virus that had been subjected to three rounds of amplification was used for all protein production procedures. To express the AMPK complex, sf21 cells were adapted to serum free medium (SF900 II, Invitrogen) by sequential dilution from serum containing stocks into SF900II medium and maintained in shaker flasks at 90 rpm at 27° C. The recombinant AMPK enzyme complex was produced by triple infection, one recombinant virus for each of the subunits, in sf21 cells under serum free conditions. Cells were infected in log phase, 1×10^6 cells/ml, at a multiplicity of infection of ˜5. Cells were harvested by centrifugation at 10,000×g for 15 minutes after 72 hours of infection with viruses. The insect cell pellet from 2 liters of culture was resuspended in 50 ml lysis buffer (20 mM Tris-HCl, 50 mM NaCl, 50 mM NaF, 30 mM Na PPi, 0.25 M sucrose, 10 mM ZnCl2, 2 mM DTT, 0.4 mg/ml digitonin) and subjected to two cycles of freeze-thaw lysis in a dry-ice ethanol bath. Insoluble material was removed by centrifugation at 10,000×g and the supernatant was fractionated with use of polyethylene glycol (PEG). The protein fraction precipitating between 2.5 and 6% PEG was used for further purification using a Blue-Sepharose step (Zhou et al, J. Clin. Invest. 108, 1167-1174, 2001).
The in vitro AMPK activation assay is performed in a volume of 30 μl in a 384-well plate. Enzyme reactions were assembled in the microtiter plate by adding 15 μl of 2× enzyme in assay buffer (20 mM HEPES, pH 7.3, 5 mM MgCl2, 3 mM DTT, 0.01% Brij 35 and CamK Kinase, to activate AMPK) to wells which contained either DMSO or compound. The reaction was initiated with the addition of 15 μl 2× substrate mixture containing 200 μM ATP, and 3.0 μM fluorescently labeled SAMS (5-FAM-HMRSAMSGLHLVKRR-COOH) in assay buffer. After 45-minute incubation at 25° C., the reaction was stopped by the addition of 70 μl stop buffer (100 mM HEPES, pH 7.3, 40 mM EDTA, 0.015% Brij 35). Phosphorylated 5-FAM SAMS product is assessed using a Caliper EZ Reader LabChip microfluidics reader. Product conversion is determined by calculating the peak heights of the substrate and product and reporting the product/(product+substrate) peak ratio. The 10-point titration data were expressed as % maximum AMP activation. The results were plotted using 4 parameter fit and the inflection point reflecting 50% of the maximum activation was reported as the EC50.

ob/ob and db/db mice = settings: following 8 weeks of administration; cited from earlier work

Row | Compound | EC50 [1] [µM] | Emax [1] [%] | blood glucose reduction (ob/ob and db/db mice) [%]
1 | N#CCCn1nnnc1-c1ccc(-c2ccc(-c3nc4nc(O[C@@H]5CO[C@H](CO)[C@H]5O)[nH]c4cc3Cl)cc2)cc1 [Example 20] | 0.008 | 242 | –
2 | CC(C)(O)Cc1cnn(-c2ccc(-c3ccc(-c4nc5nc(O[C@@H]6CO[C@H](CO)[C@H]6O)[nH]c5cc4Cl)cc3)cc2)c1 [Example 6] | 0.005 | 268 | –
3 | OC[C@H]1OC[C@@H](Oc2nc3nc(-c4ccc(-c5ccc(-n6cnnn6)cc5)cc4)c(Cl)cc3[nH]2)[C@@H]1O [Example 7, (2R,3R,4R)-4-[[6-chloro-5-[4-[4-(tetrazol-1-yl)phenyl]phenyl]-1H-imidazo[4,5-b]pyridin-2-yl]oxy]-2-(hydroxymethyl)tetrahydrofuran-3-ol] | 0.003 | 282 | –
4 | OC[C@H]1OC[C@@H](Oc2nc3nc(-c4ccc(-c5cccc(F)c5)cc4)c(Cl)cc3[nH]2)[C@@H]1O [Example 19] | 0.126 | 231 | –
5 | OC[C@H]1OC[C@@H](Oc2nc3nc(-c4ccc(-c5ccccc5)cc4)c(Cl)cc3[nH]2)[C@@H]1O [Example 3] | 0.013 | 338 | –
6 | C[C@]1(O)[C@@H](CO)OC[C@H]1Oc1nc2nc(-c3ccc(-c4ccccc4)cc3)c(Cl)cc2[nH]1 [Example 14, (2R,3S,4R)-4-[[6-chloro-5-(4-phenylphenyl)-1H-imidazo[4,5-b]pyridin-2-yl]oxy]-2-(hydroxymethyl)-3-methyl-tetrahydrofuran-3-ol] | 0.289 | 203 | –
7 | OC[C@H]1OC[C@@H](Oc2nc3nc(-c4ccc(-c5ccc(N6CCOCC6)cc5)cc4)c(Cl)cc3[nH]2)[C@@H]1O [Example 22] | 0.005 | 252 | –
8 | OC[C@H]1OC[C@@H](Oc2nc3nc(-c4ccc(-c5ccc(-n6cccn6)nc5)cc4)c(Cl)cc3[nH]2)[C@@H]1O [Example 1, (2R,3R,4R)-4-[[6-chloro-5-[4-(6-pyrazol-1-yl-3-pyridyl)phenyl]-1H-imidazo[4,5-b]pyridin-2-yl]oxy]-2-(hydroxymethyl)tetrahydrofuran-3-ol] | 0.016 | 188 | –
9 | NC(=O)c1ncn([C@@H]2O[C@H](CO)[C@@H](O)[C@H]2O)c1N [AICAR] | – | – | 35
10 | OC[C@H]1OC[C@@H](Oc2nc3nc(-c4ccc(-c5ccc(-n6cncn6)cc5)cc4)c(Cl)cc3[nH]2)[C@@H]1O [Example 5, (2R,3R,4R)-4-[[6-chloro-5-[4-[4-(1,2,4-triazol-1-yl)phenyl]phenyl]-1H-imidazo[4,5-b]pyridin-2-yl]oxy]-2-(hydroxymethyl)tetrahydrofuran-3-ol] | 0.002 | 261 | –
11 | OC[C@H]1OC[C@@H](Oc2nc3nc(-c4ccc(-c5ccc(F)cc5F)cc4)c(Cl)cc3[nH]2)[C@@H]1O [Example 21] | 0.085 | 307 | –
12 | O=C(O)[C@H]1OC[C@@H](Oc2nc3nc(-c4ccc(-c5ccccc5)cc4)c(Cl)cc3[nH]2)[C@@H]1O [Example 12, (2S,3S,4R)-4-[[6-chloro-5-(4-phenylphenyl)-1H-imidazo[4,5-b]pyridin-2-yl]oxy]-3-hydroxy-tetrahydrofuran-2-carboxylic acid] | 0.332 | 313 | –
13 | OC[C@H]1OC[C@@H](Oc2nc3nc(-c4ccc(-c5ccc(-n6nccn6)cc5)cc4)c(Cl)cc3[nH]2)[C@@H]1O [Example 4, (2R,3R,4R)-4-[[6-chloro-5-[4-[4-(triazol-2-yl)phenyl]phenyl]-1H-imidazo[4,5-b]pyridin-2-yl]oxy]2-(hydroxymethyl)tetrahydrofuran-3-ol] | 0.02 | 206 | –
14 | CC(C)(O)Cn1cc2c(n1)CN(c1ccc(-c3nc4nc(O[C@@H]5CO[C@H](CO)[C@H]5O)[nH]c4cc3Cl)cc1)C2 [Example 8, (2R,3R,4R)-4-[[6-chloro-5-[4-[2-(2-hydroxy-2-methyl-propy)-4,6-dihydropyrrolo[3,4-c]pyrazol-5-yl]phenyl]-1H-imidazo[4,5-b]pyridin-2-yl]oxy]-2-(hydroxymethyl)-tetrahydrofuran-3-ol; 2,2,2-trifluoroacetic acid] | 0.009 | 332 | –
15 | CC(C)(F)Cn1cc2c(n1)CN(c1ccc(-c3nc4nc(O[C@@H]5CO[C@H](CO)[C@H]5O)[nH]c4cc3Cl)cc1)C2 [Example 9, (2R,3R,4R)-4-[[6-chloro-5-[4-[2-(2-fluoro-2-methyl-propyl)-4,6-dihydropyrrolo[3,4-c]pyrazol-5-yl]phenyl]-1H-imidazo[4,5-b]pyridin-2-yl]oxy]-2-(hydroxymethyl)tetrahydrofuran-3-ol] | 0.011 | 294 | –
16 | OC[C@H]1OC[C@@H](Oc2nc3nc(-c4ccc(-c5ccc(F)cc5)cc4)c(Cl)cc3[nH]2)[C@@H]1O [Example 23] | 0.038 | 231 | –
17 | OC[C@H]1OC[C@@H](Oc2nc3nc(-c4ccc(-c5ccccc5F)cc4)c(Cl)cc3[nH]2)[C@@H]1O [Example 18] | 0.032 | 294 | –
18 | OC[C@H]1OC[C@@H](Oc2nc3nc(-c4ccc(-c5ccc(-n6cccn6)cc5)cc4)c(Cl)cc3[nH]2)[C@@H]1O [Example 2] | 0.004 | 315 | –
19 | OC[C@H]1OC[C@@H](Oc2nc3nc(-c4ccc(Br)cc4)c(Cl)cc3[nH]2)[C@@H]1O [Example 10, (2R,3R,4R)-4-[[5-(4-bromophenyl)-6-chloro-1H-imidazo[4,5-b]pyridin-2-yl]oxy]-2-(hydroxymethyl)tetrahydrofuran-3-ol] | 3.65 | 209 | –
